For the assay, the target named is intestinal alkaline phosphatase Alpi (Mus musculus). Description: mouse IAP enzyme inhibitors, SAR follow-up, biochemical, luminescence (AID 493135). The note with it: purified mouse IAP, luminescent substrate readout.

The structures appear in SMILES notation. Calls of active or inactive are those of the source. How the calls were made is not given here.

For orientation: IC50 means the concentration needed to halve the response being measured. On to `CC(C)N1CCC(=NNC(=O)c2cc(O)c(O)c(O)c2)CC1`, for which the IC50 was 24.9 µM.
In the case of `CC(C)n1cc(CN2CCC(C(=O)Nc3cccc(-c4cccc(Cl)c4)c3)CC2)cn1`, the IC50 is > 100 µM (inactive).
The value for `FC(F)(F)c1cccc(NC(=S)NCCC(c2ccccc2)c2ccccc2)c1` was > 100 µM (inactive); that for `Cn1cc(CN2CCC(C(=O)Nc3cccc(-c4cccc(Cl)c4)c3)CC2)cn1` was > 100 µM (inactive); that for `Cc1cc(=O)oc2cc(NC(=S)NCCC(c3ccccc3)c3ccccc3)ccc12` was > 100 µM (inactive).
As for `O=C(Nc1cccc(-c2cccc(Cl)c2)c1)C1CCN(Cc2ccc(CO)o2)CC1`, the IC50 is > 100 µM (inactive).
For the compound `C=CCn1cc(CN2CCC(C(=O)Nc3cccc(-c4cccc(F)c4)c3)CC2)c(C)n1`, the IC50 was > 100 µM (inactive).
The figure for `O=C(Nc1cccc(-c2cccc(Cl)c2)c1)C1CCN(C2CCC2)CC1` is > 100 µM (inactive); for `CCc1ccccc1Nc1nc(-c2ccc(O)c(O)c2)cs1` it is 1.55 µM.
The value for `CCCn1ncc(CN2CCC(C(=O)Nc3cccc(-c4cccc(F)c4)c3)CC2)c1C` was > 100 µM (inactive); that for `COc1cccc(-c2cccc(NC(=O)C3CCN(Cc4ccc(C)o4)CC3)c2)c1` was > 100 µM (inactive); that for `O=[N+]([O-])c1ccc(NC(=S)NCCC(c2ccccc2)c2ccccc2)cc1` was > 100 µM (inactive).
As to `Cc1nn(C)c(Cl)c1CN1CCC(C(=O)Nc2cccc(-c3cccc(F)c3)c2)CC1`, the IC50 was > 100 µM (inactive).
The value for `COc1ccc(Cl)cc1NC(=S)NCCC(c1ccccc1)c1ccccc1` was > 100 µM (inactive); that for `CCN1CCN(S(=O)(=O)c2ccc3[nH]c(=O)oc3c2)CC1` was > 100 µM (inactive); that for `CN(C)S(=O)(=O)c1cccc(NC(=S)NCCC(c2ccccc2)c2ccccc2)c1` was > 100 µM (inactive).
The figure for `Cc1ccc(CN2CCC(C(=O)Nc3cccc(-c4cccc(F)c4)c3)CC2)o1` is > 100 µM (inactive); for `COc1cc(NC(=S)NCCC(c2ccccc2)c2ccccc2)cc(OC)c1` it is > 100 µM (inactive).
The figure for `COc1cccc(-c2cccc(NC(=O)C3CCN(Cc4ccc(CO)o4)CC3)c2)c1` is > 100 µM (inactive); for `COc1ccc(NC(=S)NCCC(c2ccccc2)c2ccccc2)cc1` it is > 100 µM (inactive); for `CC(C)n1cc(CN2CCC(C(=O)Nc3cccc(-c4cccc(F)c4)c3)CC2)cn1` it is > 100 µM (inactive).
On to `Cc1ccc(C)c(NC(=S)NCCC(c2ccccc2)c2ccccc2)c1`, for which the IC50 was > 100 µM (inactive).
As to `Cc1ccc(NC(=O)CCNS(=O)(=O)c2ccc3[nH]c(=O)oc3c2)cc1C`, the IC50 is 87.1 µM.
For the compound `CCn1cc(CN2CCC(C(=O)Nc3cccc(-c4cccc(OC)c4)c3)CC2)cn1`, the IC50 was > 100 µM (inactive).
On to `Cc1c(CN2CCC(C(=O)Nc3cccc(-c4cccc(Cl)c4)c3)CC2)cnn1C`, for which the IC50 is > 100 µM (inactive).
Regarding `CCn1nc(C)c(CN2CCC(C(=O)Nc3cccc(-c4cccc(F)c4)c3)CC2)c1C`, the IC50 was > 100 µM (inactive).
With `Cc1c(Cl)cccc1Nc1nc(-c2ccc(O)c(O)c2)cs1`, the concentration for half-maximal inhibition (IC50) is 7.51 µM.
For the compound `O=C(CN1C(=O)/C(=C\c2ccco2)SC1=S)Nc1ccccc1C(=O)O`, the IC50 was 58.7 µM.
For the compound `Fc1ccccc1NC(=S)NCCC(c1ccccc1)c1ccccc1`, the IC50 is > 100 µM (inactive).
For `S=C(NCCC(c1ccccc1)c1ccccc1)Nc1ccc(Cl)c(Cl)c1`, the IC50 is > 100 µM (inactive).
With `COCc1ccc(CN2CCC(C(=O)Nc3cccc(-c4cccc(Cl)c4)c3)CC2)o1`, the IC50 is > 100 µM (inactive).
Turning to `Cc1cc(NC(=O)CCNS(=O)(=O)c2ccc3[nH]c(=O)oc3c2)ccc1Br`, the IC50 was 81.8 µM.
The figure for `CCn1cc(CN2CCC(C(=O)Nc3cccc(-c4cccc(F)c4)c3)CC2)cn1` is > 100 µM (inactive); for `CC(C)c1ccccc1NC(=S)NCCC(c1ccccc1)c1ccccc1` it is > 100 µM (inactive).
For the compound `Cn1cc(CN2CCC(C(=O)Nc3cccc(-c4cccc(F)c4)c3)CC2)cn1`, the IC50 is > 100 µM (inactive).
For `S=C(NCCC(c1ccccc1)c1ccccc1)Nc1cccc(Cl)c1`, the IC50 was > 100 µM (inactive).
Turning to `O=C(CN1C(=O)/C(=C/c2ccco2)SC1=S)Nc1ccc(C(=O)O)cc1`, the half-maximal inhibitory concentration (IC50) was 7.97 µM.
For the compound `CCn1cc(CN2CCC(C(=O)Nc3cccc(-c4cccc(OC)c4)c3)CC2)c(C)n1`, the IC50 is > 100 µM (inactive).
Regarding `COc1cc([N+](=O)[O-])ccc1NC(=S)NCCC(c1ccccc1)c1ccccc1`, the IC50 was > 100 µM (inactive).
On to `Cc1ccc(NC(=S)NCCC(c2ccccc2)c2ccccc2)cc1C`, for which the IC50 is > 100 µM (inactive).
With `COc1cccc(NC(=S)NCCC(c2ccccc2)c2ccccc2)c1`, the IC50 is > 100 µM (inactive).
The value for `CN1CCC(=NNC(=O)c2cc(O)c(O)c(O)c2)CC1` was 38.7 µM; that for `S=C(NCCC(c1ccccc1)c1ccccc1)Nc1ccc(Cl)cc1Cl` was > 100 µM (inactive); that for `Cc1cc(Cl)ccc1NC(=S)NCCC(c1ccccc1)c1ccccc1` was > 100 µM (inactive).
Consider `NS(=O)(=O)c1ccc(NC(=S)NCCC(c2ccccc2)c2ccccc2)cc1`, for which the IC50 is > 100 µM (inactive).
The figure for `O=C(CN1C(=O)/C(=C/c2ccco2)SC1=S)Nc1cccc(C(=O)O)c1` is 8.17 µM.
For the compound `CCn1nc(C)c(CN2CCC(C(=O)Nc3cccc(-c4cccc(Cl)c4)c3)CC2)c1C`, the IC50 is > 100 µM (inactive).
The figure for `CCn1cc(CN2CCC(C(=O)Nc3cccc(-c4cccc(Cl)c4)c3)CC2)cn1` is > 100 µM (inactive); for `CC1(c2ccccc2)CC(C)(C)N(C(=S)Nc2ccccc2)c2ccccc21` (stereo not drawn) it is > 100 µM (inactive); for `Oc1ccc(-c2csc(Nc3cccc4ccccc34)n2)cc1O` it is 1.11 µM.
In the case of `COC(=O)c1cc(NC(=S)NCCC(c2ccccc2)c2ccccc2)cc(C(=O)OC)c1`, the IC50 is > 100 µM (inactive).
The value for `Cc1cc(C)cc(NC(=S)NCCC(c2ccccc2)c2ccccc2)c1` was > 100 µM (inactive); that for `CCOC(=O)c1ccc(NC(=S)NCCC(c2ccccc2)c2ccccc2)cc1` was > 100 µM (inactive).
In the case of `COc1ccc(C(=O)CSc2n[nH]c(-c3ccccc3)n2)cc1OC`, the IC50 was > 100 µM (inactive).
As to `COc1ccc(Cl)cc1Nc1nc(-c2ccc(O)c(O)c2)cs1`, the half-inhibitory concentration (IC50) was 1.42 µM.
As to `Fc1ccc(NC(=S)NCCC(c2ccccc2)c2ccccc2)cc1Cl`, the IC50 is > 100 µM (inactive).
The value for `S=C(NCCC(c1ccccc1)c1ccccc1)Nc1ccc(Cl)cc1` was > 100 µM (inactive); that for `Cc1nn(C(C)C)c(C)c1CN1CCC(C(=O)Nc2cccc(-c3cccc(F)c3)c2)CC1` was > 100 µM (inactive); that for `Cc1c(Cl)cccc1NC(=S)NCCC(c1ccccc1)c1ccccc1` was > 100 µM (inactive).
Regarding `S=C(NCCC(c1ccccc1)c1ccccc1)Nc1ccccc1`, the IC50 is > 100 µM (inactive).
For the compound `CCn1c(SCC(=O)c2ccc(O)c(O)c2)nnc1-c1ccccc1OC`, the IC50 is 1.9 µM.
With `O=C(Nc1cccc(-c2cccc(F)c2)c1)C1CCN(Cc2ccc(CO)o2)CC1`, the IC50 is > 100 µM (inactive).
With `Cc1ccc(NC(=S)NCCC(c2ccccc2)c2ccccc2)cc1`, the IC50 is > 100 µM (inactive).
On to `Cc1cccc(NC(=S)NCCC(c2ccccc2)c2ccccc2)c1C`, for which the IC50 is > 100 µM (inactive).
For `S=C(NCCC(c1ccccc1)c1ccccc1)Nc1ccc(Nc2ccccc2)cc1`, the IC50 is > 100 µM (inactive).
For `O=S(=O)(Nc1ncccn1)c1ccc(NC(=S)NCCC(c2ccccc2)c2ccccc2)cc1`, the IC50 was > 100 µM (inactive).
For `C=CCn1cc(CN2CCC(C(=O)Nc3cccc(-c4cccc(Cl)c4)c3)CC2)c(C)n1`, the IC50 is > 100 µM (inactive).
`CCn1ncc(CN2CCC(C(=O)Nc3cccc(-c4cccc(F)c4)c3)CC2)c1C`: the IC50 was > 100 µM (inactive).

Values taken from PubChem BioAssay AID493135 (Sanford-Burnham Center for Chemical Genomics, 2011).
